Assay results from PubChem BioAssay AID1963839 (Molecular Pharmacology Branch, DTP, NCI, 2024).

Test system: 817829-284-R-J1-PDC complex spheroid viability
Test: Anticancer human tumor 817829-284-R-J1-PDC patient-derived colon adenocarcinoma cell line growth inhibition [POLQ]
Conditions: for IC50: curve of first compound; for viability, T/C: stronger effect = lower value
Summary of the method: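 Patient-derived tumour cells were co-cultured with HUVEC and mesenchymal stem cells as multicellular spheroids at 37 °C. They were treated with POLQ inhibitors (novobiocin, ART-558, RP6685) alone or combined with other agents. Top concentrations were at or near clinical Cmax (otherwise 10 microM; SN-38 at 1 microM), decreasing in half-log steps.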

[1] = second compound 0.0316 µM, first compound 0.00316 µM
[2] = second compound 0.0316 µM, first compound 0.01 µM
[3] = second compound 0.0316 µM, first compound 0.0316 µM
[4] = second compound 0.0316 µM, first compound 0.1 µM
[5] = second compound 0.0316 µM, first compound 0.316 µM
[6] = second compound 0.0316 µM, first compound 1 µM
[7] = second compound 0.1 µM, first compound 0.00316 µM
[8] = second compound 0.1 µM, first compound 0.01 µM
[9] = second compound 0.1 µM, first compound 0.0316 µM
[10] = second compound 0.1 µM, first compound 0.1 µM
[11] = second compound 0.1 µM, first compound 0.316 µM
[12] = second compound 0.1 µM, first compound 1 µM
[13] = second compound 0.316 µM, first compound 0.00316 µM
[14] = second compound 0.316 µM, first compound 0.01 µM
[15] = second compound 0.316 µM, first compound 0.0316 µM
[16] = second compound 0.316 µM, first compound 0.1 µM
[17] = second compound 0.316 µM, first compound 0.316 µM
[18] = second compound 0.316 µM, first compound 1 µM
[19] = second compound 1 µM, first compound 0.00316 µM
[20] = second compound 1 µM, first compound 0.01 µM
[21] = second compound 1 µM, first compound 0.0316 µM
[22] = second compound 1 µM, first compound 0.1 µM
[23] = second compound 1 µM, first compound 0.316 µM
[24] = second compound 1 µM, first compound 1 µM
[25] = second compound 3.16 µM, first compound 0.00316 µM
[26] = second compound 3.16 µM, first compound 0.01 µM
[27] = second compound 3.16 µM, first compound 0.0316 µM
[28] = second compound 3.16 µM, first compound 0.1 µM
[29] = second compound 3.16 µM, first compound 0.316 µM
[30] = second compound 3.16 µM, first compound 1 µM
[31] = second compound 10 µM, first compound 0.00316 µM
[32] = second compound 10 µM, first compound 0.01 µM
[33] = second compound 10 µM, first compound 0.0316 µM
[34] = second compound 10 µM, first compound 0.1 µM
[35] = second compound 10 µM, first compound 0.316 µM
[36] = second compound 10 µM, first compound 1 µM
[37] = second compound 0.0316 µM, first compound 3.16 µM
[38] = second compound 0.0316 µM, first compound 10 µM
[39] = second compound 0.1 µM, first compound 3.16 µM
[40] = second compound 0.1 µM, first compound 10 µM
[41] = second compound 0.316 µM, first compound 3.16 µM
[42] = second compound 0.316 µM, first compound 10 µM
[43] = second compound 1 µM, first compound 3.16 µM
[44] = second compound 1 µM, first compound 10 µM
[45] = second compound 3.16 µM, first compound 3.16 µM
[46] = second compound 3.16 µM, first compound 10 µM
[47] = second compound 10 µM, first compound 3.16 µM
[48] = second compound 10 µM, first compound 10 µM
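Also: spheroids exposed to compounds for 7 days.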
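For viability, T/C in this document: 100% = DMSO vehicle-treated spheroids.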

For C=CCn1c(=O)c2cnc(Nc3ccc(N4CCN(C)CC4)cc3)nc2n1-c1cccc(C(C)(C)O)n1 + Nc1ccc(C#CCN(C(=O)Cc2ncc(C(F)(F)F)cc2C(F)(F)F)c2ccc(F)cc2)nn1, the IC50 (second compound 0.0316 µM) was 258 nM, the IC50 (second compound 0.1 µM) was 219 nM and the IC50 (second compound 0.316 µM) was 214 nM. It also gave an IC50 (second compound 1 µM) of 259 nM, an IC50 (second compound 3.16 µM) of 198 nM and an IC50 (second compound 10 µM) of 236 nM. It also gave a viability, T/C [1] of 90.9%, a viability, T/C [2] of 118% and a viability, T/C [3] of 97.2%. For the same compound, the viability, T/C [4] was 72.6%, the viability, T/C [5] was 47% and the viability, T/C [6] was 5.79%. For the same compound, the viability, T/C [7] was 103%, the viability, T/C [8] was 103% and the viability, T/C [9] was 83.6%. The viability, T/C [10] was 79.9%, the viability, T/C [11] was 36% and the viability, T/C [12] was 6.74%. It also gave a viability, T/C [13] of 90.6%, a viability, T/C [14] of 113% and a viability, T/C [15] of 87.8%. The viability, T/C [16] was 78%, the viability, T/C [17] was 36.1% and the viability, T/C [18] was 5.29%. The viability, T/C [19] was 110%, the viability, T/C [20] was 115% and the viability, T/C [21] was 85.5%. For the same compound, the viability, T/C [22] was 82.4%, the viability, T/C [23] was 42.2% and the viability, T/C [24] was 5.43%. For the same compound, the viability, T/C [25] was 93.7%, the viability, T/C [26] was 82.2% and the viability, T/C [27] was 100%. The viability, T/C [28] was 75.2%, the viability, T/C [29] was 31.8% and the viability, T/C [30] was 5.58%. The viability, T/C [31] was 90.7%, the viability, T/C [32] was 105% and the viability, T/C [33] was 89.7%. It also gave a viability, T/C [34] of 80.7%, a viability, T/C [35] of 39.7% and a viability, T/C [36] of 5.43%.
CCCS(=O)(=O)Nc1ccc(F)c(C(=O)c2c[nH]c3ncc(-c4ccc(Cl)cc4)cc23)c1F + Nc1ccc(C#CCN(C(=O)Cc2ncc(C(F)(F)F)cc2C(F)(F)F)c2ccc(F)cc2)nn1 gave an IC50 (second compound 0.0316 µM) of 4470 nM, an IC50 (second compound 0.1 µM) of 4540 nM and an IC50 (second compound 0.316 µM) of 3460 nM. It also gave an IC50 (second compound 1 µM) of 3750 nM, an IC50 (second compound 3.16 µM) of 4490 nM and an IC50 (second compound 10 µM) of 3680 nM. The viability, T/C [3] was 90%, the viability, T/C [4] was 75.5% and the viability, T/C [5] was 93.2%. For the same compound, the viability, T/C [6] was 91.3%, the viability, T/C [37] was 67.2% and the viability, T/C [38] was 9.94%. For the same compound, the viability, T/C [9] was 90.4%, the viability, T/C [10] was 55.9% and the viability, T/C [11] was 81.7%. For the same compound, the viability, T/C [12] was 74.7%, the viability, T/C [39] was 68.2% and the viability, T/C [40] was 10.4%. It also gave a viability, T/C [15] of 85%, a viability, T/C [16] of 85.4% and a viability, T/C [17] of 83.2%. It also gave a viability, T/C [18] of 75.8%, a viability, T/C [41] of 53.2% and a viability, T/C [42] of 11.5%. For the same compound, the viability, T/C [21] was 84%, the viability, T/C [22] was 76.7% and the viability, T/C [23] was 88.2%. It also gave a viability, T/C [24] of 66.3%, a viability, T/C [43] of 58.6% and a viability, T/C [44] of 13.9%. It also gave a viability, T/C [27] of 95.2%, a viability, T/C [28] of 62.6% and a viability, T/C [29] of 78.7%. The viability, T/C [30] was 84.2%, the viability, T/C [45] was 66.1% and the viability, T/C [46] was 13.2%. The viability, T/C [33] was 88.9%, the viability, T/C [34] was 64.8% and the viability, T/C [35] was 75.8%. It also gave a viability, T/C [36] of 75.9%, a viability, T/C [47] of 55.6% and a viability, T/C [48] of 13.6%.
With CNCc1ccc(-c2[nH]c3cc(F)cc4c3c2CCNC4=O)cc1 + Nc1ccc(C#CCN(C(=O)Cc2ncc(C(F)(F)F)cc2C(F)(F)F)c2ccc(F)cc2)nn1 the IC50 (second compound 0.0316 µM) was 6740 nM, the IC50 (second compound 0.1 µM) was 7780 nM and the IC50 (second compound 0.316 µM) was over 10000 nM. For the same compound, the IC50 (second compound 1 µM) was over 10000 nM, the IC50 (second compound 3.16 µM) was 7270 nM and the IC50 (second compound 10 µM) was 8040 nM. For the same compound, the viability, T/C [3] was 85.2%, the viability, T/C [4] was 83.8% and the viability, T/C [5] was 86.4%. For the same compound, the viability, T/C [6] was 73.8%, the viability, T/C [37] was 67.4% and the viability, T/C [38] was 41.2%. The viability, T/C [9] was 81%, the viability, T/C [10] was 97% and the viability, T/C [11] was 83%. For the same compound, the viability, T/C [12] was 73.8%, the viability, T/C [39] was 65.3% and the viability, T/C [40] was 45.8%. For the same compound, the viability, T/C [15] was 80.6%, the viability, T/C [16] was 88.7% and the viability, T/C [17] was 82.8%. For the same compound, the viability, T/C [18] was 60.8%, the viability, T/C [41] was 65% and the viability, T/C [42] was 52.9%. It also gave a viability, T/C [21] of 97.7%, a viability, T/C [22] of 86.5% and a viability, T/C [23] of 90.1%. For the same compound, the viability, T/C [24] was 73.3%, the viability, T/C [43] was 74.3% and the viability, T/C [44] was 48%. The viability, T/C [27] was 103%, the viability, T/C [28] was 83.6% and the viability, T/C [29] was 83.2%. For the same compound, the viability, T/C [30] was 85.8%, the viability, T/C [45] was 83.6% and the viability, T/C [46] was 37.3%. The viability, T/C [33] was 86.2%, the viability, T/C [34] was 75.7% and the viability, T/C [35] was 76.9%. For the same compound, the viability, T/C [36] was 79.5%, the viability, T/C [47] was 75.2% and the viability, T/C [48] was 44.1%.
Work on COc1cccc(OCCCN)c1-c1cc(Nc2cnc(C#N)cn2)n[nH]1 + Nc1ccc(C#CCN(C(=O)Cc2ncc(C(F)(F)F)cc2C(F)(F)F)c2ccc(F)cc2)nn1 yielded an IC50 (second compound 0.0316 µM) of 5.44 nM, an IC50 (second compound 0.1 µM) of 5.2 nM and an IC50 (second compound 0.316 µM) of 5.7 nM. The IC50 (second compound 1 µM) was 5.69 nM, the IC50 (second compound 3.16 µM) was 5.41 nM and the IC50 (second compound 10 µM) was 5.7 nM. For the same compound, the viability, T/C [1] was 82.4%, the viability, T/C [2] was 13.8% and the viability, T/C [3] was 5.45%. For the same compound, the viability, T/C [4] was 4.83%, the viability, T/C [5] was 4.44% and the viability, T/C [6] was 3.65%. It also gave a viability, T/C [7] of 77.1%, a viability, T/C [8] of 14.6% and a viability, T/C [9] of 4.6%. It also gave a viability, T/C [10] of 5.23%, a viability, T/C [11] of 3.56% and a viability, T/C [12] of 3%. For the same compound, the viability, T/C [13] was 87%, the viability, T/C [14] was 14.7% and the viability, T/C [15] was 4.16%. The viability, T/C [16] was 5.93%, the viability, T/C [17] was 4.07% and the viability, T/C [18] was 3.09%. For the same compound, the viability, T/C [19] was 84.7%, the viability, T/C [20] was 16.7% and the viability, T/C [21] was 5.79%. It also gave a viability, T/C [22] of 4.2%, a viability, T/C [23] of 4.04% and a viability, T/C [24] of 2.8%. For the same compound, the viability, T/C [25] was 84%, the viability, T/C [26] was 11.2% and the viability, T/C [27] was 5.75%. For the same compound, the viability, T/C [28] was 5.62%, the viability, T/C [29] was 3.65% and the viability, T/C [30] was 3.11%. For the same compound, the viability, T/C [31] was 87.2%, the viability, T/C [32] was 14.5% and the viability, T/C [33] was 5.81%. The viability, T/C [34] was 3.93%, the viability, T/C [35] was 4.01% and the viability, T/C [36] was 3.39%.
